Experimental data reported in PMC12010006, “Subnanomolar MAS-related G protein-coupled receptor-X2/B2 antagonists with efficacy in human mast cells and disease models” (Signal Transduction and Targeted Therapy, 2025).
“Also recorded” adds a separate entry of the source.

Tests used:
[1] = system: muscarinic acetylcholine receptors (mAChRs); experiment: Ca2+ assay versus carbachol in LN229-MRGPRX2 cell line; type: cell-based, human; conditions: 10 µM, carbachol 100 µM
[2] = system: C48/80-induced systemic anaphylaxis; experiment: Systemic anaphylactic reaction, plasma CCL2; type: in vivo, mouse; conditions: 50 mg/kg b.w., i.p.; C48/80 2 mg/kg i.p.; 4 h; listed as PSB-172656
Description: PSB-172656 was further investigated in a mouse model of skin inflammation,[54] determining its effects on C48/80-induced hind paw edema. […] These findings indicate a strong anti-inflammatory effect of the MRGPRX2/B2 antagonist in this mouse model.
30 min after intraperitoneal administration of PSB-172656 at a dose of 50 mg/kg b.w. or vehicle (2% DMSO), an anaphylactic reaction was induced by the intraperitoneal injection of C48/80 at a dose of 2 mg/kg b.w. (in 0.9% NaCl). The non-lethal dose of this compound was assumed based on the literature.[70],[71] The mice were then left in their cages for 4 h. Then, heparin (2500 U/mouse) and sodium thiopental at a dose of 70 mg/kg b.w. were administered intraperitoneally, and blood was collected after decapitation. The plasma concentration of CCL-2 and IL-8 was determined using an ELISA kit (catalog number: E1707Mo, E1481Mo, BT LAB, China).

[3] = system: IgE-mediated degranulation; experiment: IgE-mediated degranulation (DNP-BSA) of RBL-MRGPRX2 cells sensitized with DNP-specific IgE; type: cell-based, rat; conditions: 0.1 and 0.3 µM; DNP-BSA 10 and 30 ng/mL
Description: Having a competitive MRGPRX2 antagonist with subnanomolar potency in hand, we next studied its effects on MCs. Activation of MRGPRX2, which is highly expressed in skin MCs, results in degranulation and histamine release.[19] We therefore investigated whether PSB-172656 inhibits MRGPRX2-mediated MC activation utilizing the rat MC line RBL-2H3 recombinantly expressing the human MRGPRX2 (designated RBL-MRGPRX2). These cells were treated with two different concentrations of PSB-172656 (100 nM and 300 nM), and then exposed to different MRGPRX2 agonists, namely C48/80 (0.3 µg/mL), SP (0.3 µM), and PAMP-12 (0.1 µM), respectively. Degranulation of the cells was assayed by β-hexosaminidase release measurements.
Fig. 5 PSB-172656 blocks MRGPRX2-induced mast cell degranulation without affecting IgE-mediated responses. a RBL-MRGPRX2 cells were incubated with control (vehicle) or preincubated with PSB-172656 (100 or 300 nM), followed by stimulation with C48/80 (0.3 µg/mL), substance P (SP; 0.3 µM), or PAMP-12 (0.1 µM), and β-hexosaminidase release was measured. RBL-MRGPRX2 cells were sensitized with monoclonal anti-dinitrophenyl antibody (DNP-specific IgE), and degranulation induced by 2,4-dinitrophenylated bovine serum albumin (DNP-BSA, 10 and 30 ng/mL) was measured without or after preincubation with PSB-172656 (0.1 and 0.3 µM). […] Data are expressed as means ± SEM of 3 biological replicates. […]

CCCc1c(C)[nH]c2nc3ccccc3n2c1=O [Compound 1, 2-methyl-3-propylbenzo[4,5]imidazo[1,2-a]pyrimidin-4(1H)-one]
inhibition of signal induced by carbachol [1]: did not inhibit

CCc1c(C(C)C)[nH]c2nc3cc(F)c(F)cc3n2c1=O [Compound 24, 3-ethyl-7,8-difluoro-2-isopropylbenzo[4,5]imidazo [1,2-a] pyrimidin-4(1H)-one]
effect on plasma CCL2 levels [2]: significantly decreased levels of CCL2; also recorded: prevented the dramatic increase in CCL2 levels | effect on IgE-mediated degranulation induced by DNP-BSA [3]: did not inhibit
